Assay results published in patent US8859527B2 (priority 2009, dated 2014).
Where two headings read alike, the source gives them in different places.

Tests used:
[1] = system: human non-small cell lung cancer H460 xenograft tumor; details: for Tumor volume / RTV / T/C / Gross tumor volume: 20 mg/kg iv
Description: (§6) The test article: the inclusion complex of DPT and SBE-β-CD, the content is 5.05%. Preparation Method: it is dissolved in a proper amount of saline after gentle shaking and the concentration is 0.4 mg/ml (which is the test solution for the 8 mg/kg group); other concentrations are prepared by diluting the stock solution of 0.4 mg/ml to the required concentration with physiological saline.
(§7) The control article: Etoposide injection produced by Qilu Pharmaceutical Co., Ltd. the batch number is 8060012EV, specification: 5 ml:0.1 g. Preparation Method: Etoposide injection is a kind of transparent sticky liquid and it is diluted with a proper amount of physiological saline and gently shaken and prepared as a homogeneous solution, and the concentration is 1 mg/ml.
(§8) Dosage setting: the high dosage group of DPT is 8 mg/kg, the medium dosage group of DPT is 4 mg/kg and the low dosage group of DPT is 2 mg/kg. The dosage for the positive control group of Etoposide injection is 20 mg/kg.
(§9) Experimental animals: source, germline and strain: BALB/c nude mice are provided by the Institute of Experimental Animals, Chinese Academy of Medical Sciences. Age: 35-40 days; body weight: 18-24 g; gender: male.
(§10) Transplanted tumor: the transplanted tumor for human nonsmall-cell lung cancer H460 in nude mice, and it is established by inoculating the human nonsmall-cell lung cancer H460 cell line hypodermically in the armpit of nude mice. 2×10^6 cells are inoculated.
(§11) Human non-small cell lung cancer H460 cell line in exponential phase of growth is prepared as a cell suspension of 2×10^7/ml under sterile conditions, 0.1 ml thereof is inoculated hypodermically in the right armpit of nude mice. The diameters of the transplanted tumors in the nude mice are measured by a sliding caliper, and the animals are randomly divided into different groups when the tumors grow up to the amount of 100 to 300 mm^3. The antitumor efficacy of the test article is dynamically observed by measuring the diameter of the tumor. The diameters of the tumor are determined once for every two days. The administration volume is 0.4 ml/20 g. The mice are killed 21 days after administration, and the tumors are surgically isolated and weighed. The calculation formula for tumor volume (TV) is as follows: TV=½×a×b^2 Wherein a and b represents for the length and the width, respectively.
(§12) The relative tumor volume (RTV) is calculated according to the measured results, and the calculation formula is as follows: RTV=Vt/V0. Wherein V0 is the tumor size measured during grouping and drug administration (d0), Vt is the tumor size in every measurements. The evaluation parameter for antitumor activity is the relative tumor growth rate T/C (%) which is calculated according to the formula as follows:
(§13) [formula] TRTV: the treatment group RTV; CRTV: the negative control group: RTV.

[2] = system: K-562 (human erythremia cell line); test: in vitro growth inhibition of tumor cells, K-562; type: cell-based; details: K562, 48 hours
Description: (§1) The tumor strains are A-549 (human lung adenocarcinoma cell line), BGC-823 (human gastric cancer cell line), C-6 (rat neurogliocytoma cell line), Hep G2 (human hepatic cancer cell line), HL-60 (human leukemia cell line), K-562 (human erythremia cell line) and Hela (human cervical cancer cell line). […] The drug was prepared as a stock solution of 10^−2 M by using physiological saline and diluted into the test solution in a gradient composed of five concentrations: C1 5×10^−5 M, C2 10^−5 M, C3 10^−6 M, C4 10^−7 M and C5 10^−8 M.
(§2) Experimental method: different tumor cells in exponential growth phase are inoculated in 96-well plates in a certain amount and the selected samples are added after the cells are cultured for 24 hours (suspension cells can be directly added after being inoculated), after the cells are incubated at 37° C. and 5% CO2 for another 48 hours, […] is added for further incubation for another 4 hours, and finally the samples are examined on a microplate reader after dissolving with DMSO.

[3] = system: A-549 (human lung adenocarcinoma cell line); test: in vitro growth inhibition of tumor cells, A-549; type: cell-based; details: A549, 48 hours
Description: as §1, §2

[4] = system: Hela (human cervical cancer cell line); test: in vitro growth inhibition of tumor cells, Hela; type: cell-based; details: hela, 48 hours
Description: as §1, §2

[5] = system: human non-small cell lung cancer H460 xenograft tumor; details: mouse, in vivo, iv, 20 mg/kg
Description: as §6, §7, §8, §9, §10, §11, §12, §13

transplanted tumor S180 = system: transplanted tumor S180
Description: (§3) Experimental groups: three dosage groups were set up for DPT, 10, 5 and 2.5 mg/kg; the blank control group: cyclophosphamide (CTX) group, Etoposide group 20 mg/kg.
(§4) Administration route: injection via tail vein, it is administered in a dosage of 0.4 ml/20 g body weight. Administration period: the drug is administrated 24 hours after the inoculation, once every two days for four times in total.
(§5) Experimental methods: 60 ICR mice with standard weight of from 18 to 22 g are inoculated with S-180 or Heps solid tumor according to the test method for transplanted tumors, hypodermic inoculation with 0.2 ml is carried out in the armpit in the anterior limb of every mouse. The body weight is determined 24 hours after the inoculation and they are randomly divided into six groups: the blank control group, the CTX group (20 mg/kg), the Etoposide group (20 mg/kg), the DPT group (10, 5 and 2.5 mg/Kg). The drug is administrated 24 hours after the inoculation once for every two days for 4 times, and tumor-bearing mice are killed on the next after drug withdrawal and their body weights are measured, and the separated tumor mess is weighed, and all of the data are subjected to statistical analyses (t-test).

transplanted tumor Heps = system: transplanted tumor Heps
Description: as §3, §4, §5

[6] = system: Hep G2 (human hepatic cancer cell line); test: in vitro growth inhibition of tumor cells, Hep G2; type: cell-based; details: HepG2, 48 hours
Description: as §1, §2

[7] = system: BGC-823 (human gastric cancer cell line); test: in vitro growth inhibition of tumor cells, BGC-823; type: cell-based; details: 48 hours
Description: as §1, §2

[8] = system: C-6 (rat neurogliocytoma cell line); test: in vitro growth inhibition of tumor cells, C-6; type: cell-based; details: C6, 48 hours
Description: as §1, §2

[9] = system: HL-60 (human leukemia cell line); test: in vitro growth inhibition of tumor cells, HL-60; type: cell-based; details: 48 hours
Description: as §1, §2

[10] = H460 nude mice, 20 mg/kg iv three times a week, 9 times, 21 days
[11] = S180 mice, 20 mg/kg iv, once every two days, four times
[12] = Heps mice, 20 mg/kg iv, once every two days, four times

Structure (SMILES): COc1cc([C@@H]2c3cc4c(cc3[C@@H](O[C@@H]3O[C@@H]5CO[C@@H](C)O[C@H]5[C@H](O)[C@H]3O)[C@H]3COC(=O)[C@H]23)OCO4)cc(OC)c1O [Etoposide, reference compound]
- Tumor volume ([1]; 0 d): 275 ± 130 mm^3
- RTV ([1]; 2 d): 1.306 ± 0.356
- T/C ([1]; 2 d): 81.24%
- Tumor volume ([1]; 2 d): 352 ± 169 mm^3
- RTV ([1]; 4 d): 2.012 ± 0.744
- T/C ([1]; 4 d): 77.07%
- Tumor volume ([1]; 4 d): 534 ± 277 mm^3
- RTV ([1]; 6 d): 2.048 ± 0.441
- T/C ([1]; 6 d): 66.86%
- Tumor volume ([1]; 6 d): 531 ± 186 mm^3
- RTV ([1]; 8 d): 2.054 ± 0.776
- T/C ([1]; 8 d): 46.77%
- Tumor volume ([1]; 8 d): 539 ± 255 mm^3
- Gross tumor volume ([1]; 10 d): 482 ± 216 mm^3
- RTV ([1]; 10 d): 1.846 ± 0.688
- T/C ([1]; 10 d): 36.90%
- Gross tumor volume ([1]; 12 d): 534 ± 254 mm^3
- RTV ([1]; 12 d): 2.189 ± 1.212
- T/C ([1]; 12 d): 29.47%
- RTV ([1]; 14 d): 2.898 ± 1.741
- T/C ([1]; 14 d): 34.16%
- Tumor volume ([1]; 14 d): 682 ± 311 mm^3
- RTV ([1]; 16 d): 3.115 ± 1.969
- T/C ([1]; 16 d): 31.23%
- Tumor volume ([1]; 16 d): 730 ± 384 mm^3
- RTV ([1]; 18 d): 3.876 ± 2.645
- T/C ([1]; 18 d): 34.39%
- Tumor volume ([1]; 18 d): 873 ± 407 mm^3
- RTV ([1]; 21 d): 3.706 ± 1.796
- T/C ([1]; 21 d): 32.18%
- Tumor volume ([1]; 21 d): 872 ± 305 mm^3
- Tumor weight [1, 10]: 1.27 ± 0.61 g
- Tumor-inhibition rate [1, 10]: 61.08%
- Inhibition effects on in vitro growth ([2]; 5 × 10^−5M): 67.32%
- Inhibition effects on in vitro growth ([2]; 10^−5M): 15.04%
- Inhibition effects on in vitro growth ([2]; 10^−6M): 4.45%
- Inhibition effects on in vitro growth ([2]; 10^−7M): 3.08%
- Inhibition effects on in vitro growth ([2]; 10^−8M): 2.38%
- Inhibition effects on in vitro growth ([3]; 5 × 10^−5M): 68.67%
- Inhibition effects on in vitro growth ([3]; 10^−5M): 22.99%
- Inhibition effects on in vitro growth ([3]; 10^−6M): 5.18%
- Inhibition effects on in vitro growth ([3]; 10^−7M): 3.68%
- Inhibition effects on in vitro growth ([3]; 10^−8M): 2.3%
- Inhibition effects on in vitro growth ([4]; 5 × 10^−5M): 97.26%
- Inhibition effects on in vitro growth ([4]; 10^−5M): 24.71%
- Inhibition effects on in vitro growth ([4]; 10^−6M): 6.87%
- Inhibition effects on in vitro growth ([4]; 10^−7M): 5.63%
- Inhibition effects on in vitro growth ([4]; 10^−8M): 4.35%
- Initial body weight [5]: 22.67 ± 1.37 g
- toxicity [5]: obvious toxicity
- Tumor weight (transplanted tumor S180; [11]): 1.05 ± 0.35 g
- Tumor-inhibition rate (transplanted tumor S180; [11]): 43.03%
- Body weight After administration (transplanted tumor S180; mouse, in vivo, iv, 20 mg/kg): 23.30 ± 1.83 g
- Body weight Before administration (transplanted tumor S180; mouse, in vivo, iv, 20 mg/kg): 19.30 ± 1.06 g
- Tumor inhibition rate (transplanted tumor Heps; [12]): 59.31%
- Tumor weight (transplanted tumor Heps; [12]): 0.80 ± 0.37 g
- Body weight After administration (transplanted tumor Heps; mouse, in vivo, iv, 20 mg/kg): 22.40 ± 2.41 g
- Body weight Before administration (transplanted tumor Heps; mouse, in vivo, iv, 20 mg/kg): 21.10 ± 1.37 g
- Inhibition effects on in vitro growth ([6]; 5 × 10^−5M): 97.14%
- Inhibition effects on in vitro growth ([6]; 10^−5M): 38.94%
- Inhibition effects on in vitro growth ([6]; 10^−6M): 8.71%
- Inhibition effects on in vitro growth ([6]; 10^−7M): 2.02%
- Inhibition effects on in vitro growth ([6]; 10^−8M): 1.71%
- Inhibition effects on in vitro growth ([7]; 5 × 10^−5M): 61.14%
- Inhibition effects on in vitro growth ([7]; 10^−5M): 10.55%
- Inhibition effects on in vitro growth ([7]; 10^−6M): 8.15%
- Inhibition effects on in vitro growth ([7]; 10^−7M): 7.67%
- Inhibition effects on in vitro growth ([7]; 10^−8M): 3.41%
- Inhibition effects on in vitro growth ([8]; 5 × 10^−5M): 66.2%
- Inhibition effects on in vitro growth ([8]; 10^−5M): 59.96%
- Inhibition effects on in vitro growth ([8]; 10^−6M): 49.99%
- Inhibition effects on in vitro growth ([8]; 10^−7M): 16.67%
- Inhibition effects on in vitro growth ([8]; 10^−8M): 9.98%
- Inhibition effects on in vitro growth ([9]; 5 × 10^−5M): 94.85%
- Inhibition effects on in vitro growth ([9]; 10^−5M): 16.01%
- Inhibition effects on in vitro growth ([9]; 10^−6M): 8.45%
- Inhibition effects on in vitro growth ([9]; 10^−7M): 3.48%
- Inhibition effects on in vitro growth ([9]; 10^−8M): 1.91%

Structure (SMILES): O=P1(N(CCCl)CCCl)NCCCO1 (centres unmarked) [CTX, cyclophosphamide, reference compound]
- Body weight Before administration (transplanted tumor S180; S180 mice, 20 mg/kg iv group): 19.80 ± 1.69 g
- Body weight After administration (transplanted tumor S180; [11]): 23.00 ± 2.50 g
- Tumor weight (transplanted tumor S180; [11]): 0.98 ± 0.22 g
- Tumor-inhibition rate (transplanted tumor S180; [11]): 46.77%
- Body weight Before administration (transplanted tumor Heps; Heps mice, 20 mg/kg iv group): 21.30 ± 1.49 g
- Body weight After administration (transplanted tumor Heps; [12]): 22.50 ± 3.69 g
- Tumor inhibition rate (transplanted tumor Heps; [12]): 66.94%
- Tumor weight (transplanted tumor Heps; [12]): 0.65 ± 0.21 g
